Results on one molecule are retold here after patent US11059795B2, “Androgen receptor modulators and methods for their use” (ESSA Pharma, Inc., priority 2018, dated 2021).

A short description of data set [1]: Microsomal stability assay, mouse liver microsomes. The format is in vitro ADME. The note with it: pH 7.4; mouse liver microsomes; read-out: Liver microsome T½ (min) Mouse. Summed up: (§1)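 Compound at 1 μM was incubated at 37° C with 0.5 mg/mL liver microsomes and 1 mM NADPH and/or 1 mM UDPGA (with alamethicin) in 100 mM potassium phosphate pH 7.4, 3 mM MgCl2. Samples were taken at 0, 15, 30 and 60 min and measured by LC/MS/MS. t½ came from compound loss relative to 0 min, and Clint was scaled with 45 mg microsomal protein/g liver.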

Data set [2] in a line: Microsomal stability assay, human liver microsomes. The note with it: pH 7.4, read-out: Liver microsome T½ (min) Human. Format: in vitro ADME. In short, it runs like this:
as §1

The nature of data set [3]: Microsomal stability assay, rat liver microsomes. Format: in vitro ADME. The note with it: pH 7.4, read-out: Liver microsome T½ (min) Rat. Here is the method:
(§2) Microsomal stability assay is a widely used in vitro model to characterize the metabolic conversion by phase I enzymes, such as cytochrome P450 (CYP) enzymes. Since metabolism is known to be highly variable in different species, microsomal stability assay is commonly run in multiple species. Metabolic stability of testing compound can be evaluated using human, rat, mouse, or other animal liver or intestine microsomes to predict intrinsic clearance.
(§3) The assay was carried out in 96-well microtiter plates at 37° C. Reaction mixtures (25 μL) contained a final concentration of 1 μM test compound, 0.5 mg/mL liver microsomes protein, and 1 mM NADPH and/or 1 mM UDPGA (with alamethicin) in 100 mM potassium phosphate, pH 7.4 buffer with 3 mM MgCl2. The incubation was done with N=1, but duplicate incubation at each time point can be prepared if necessary. At each of the time points (for example, 0, 15, 30, and 60 minutes), 150 μL of quench solution (100% acetonitrile with 0.1% formic acid) with internal standard was transferred to each well. Besides the zero minute controls, mixtures containing the same components except the NADPH can also be prepared as the negative control. Verapamil was included as a positive control to verify assay performance. Plates were sealed, vortexed, and centrifuged at 4° C. for 15 minutes at 4000 rpm. The supernatant is transferred to fresh plates for LC/MS/MS analysis.
(§4) Summarized conditions: [Compound]=[…], [LM]=0.5 mg/mL, [NADPH]=1 mM and/or [UDPGA]=1 mM, Buffer=100 mM Potassium Phosphate, pH 7.4 with 3 mM MgCl2, Time=0, 15, 30, and 60 min, and Temperature=37° C.
(§5) All samples were analyzed on LC/MS/MS using an AB Sciex API 4000 instrument, coupled to a Shimadzu LC-20AD LC Pump system. Analytical samples were separated using a Waters Atlantis T3 dC18 reverse phase HPLC column (20 mm×2.1 mm) at a flow rate of 0.5 mL/min. The mobile phase consisted of 0.1% formic acid in water (solvent A) and 0.1% formic acid in 100% acetonitrile (solvent B).
(§6) The extent of metabolism is calculated as the disappearance of the test compound, compared to the 0-min time incubation. Initial rates are calculated for the compound concentration and used to determine half-life (t½) values and subsequently, the intrinsic clearance (Clint). Clint=(0.693)(1/t½ (min))(g of liver/kg of body weight)(mL incubation/mg of microsomal protein)(45 mg of microsomal protein/g of liver weight)

Data set [4] in a line: Microsomal stability assay, dog liver microsomes. Format: in vitro ADME. Particulars: pH 7.4, read-out: Liver microsome T½ (min) Dog. Here is the method: as §2, §3, §4, §5, §6
The nature of data set [5]: Microsomal stability assay, monkey liver microsomes. The format is in vitro ADME. Particulars: pH 7.4, read-out: Liver microsome T½ (min) Monkey. Here is the method:
as §2, §3, §4, §5, §6

Data set [6] can be described thus: Hepatocyte stability assay, human hepatocytes. The format is in vitro ADME. The note with it: cryopreserved hepatocytes, read-out: Hepatocytes T½ (min) Human.
Text: The […] of in vitro intrinsic clearance (Clint) for drug candidates in the early discovery stage is common practice in the pharmaceutical industry. The Clint values of drug candidates can help to confirm whether metabolism is the main clearance pathway when it is compared with the total body clearance in vivo. Hepatocytes are among the routinely used in vitro systems for measuring clearance. Hepatocytes have been reported to retain most of the phase I and phase II metabolic activities, and therefore, it is a useful tool to estimate the intrinsic clearance for potential drug candidates.
Metabolic stability of testing compound were be evaluated using human and mouse hepatocytes and can also be use rat, mouse, or other animal hepatocytes to predict intrinsic clearance. Cryopreserved hepatocytes were removed from the liquid nitrogen tank and thawed in a 37° C. water bath. As soon as the cells pulled away from the vial wall, they were decanted into 48 ml of warm HT medium. Cells were centrifuged for four minutes at 420 rpm (50 g). After removing the supernatant, pellet was re-suspended in warm DMEM medium. Cell density was counted by a hemacytometer.
The assay was carried out in 96-well microtiter plates. Compounds were incubated for 0, 60, 120, and 180 minutes at 37° C. with hepatocytes. Reaction mixtures (50 μL) contained a final concentration of 1 μM test compound, 0.5 million cells/mL hepatocytes in the DMEM medium. At each of the time points (for example, 0, 1, 2, and 3 hours), 200 μL of quench solution (100% acetonitrile with 0.1% formic acid) with internal standard was transferred to each well. Midazolam was included as a positive control to verify assay performance. Plates were sealed and centrifuged at 4° C. for 15 minutes at 4000 rpm. The supernatant is transferred to fresh plates for LC/MS/MS analysis.
Summarized conditions (customizable): [Compound]=[…], Positive control: midazolam and/or naloxone, [Hepatocyte]=0.5 million cells/Ml, time=0, 60, 120, and 180 min, t=37° C.
as §5
The extent of metabolism was calculated as the disappearance of the test compound, compared to the 0-min control reaction incubations. Initial rates were calculated for the compound concentration and used to determine t½ values and subsequently, the intrinsic clearance, Clint. Clint=(0.693)(1/t½(min))(mL incubation/million cells)

The nature of data set [7]: In vivo pharmacokinetics in plasma after oral gavage (PO) in male CD-1 mice. The note with it: 5 mg/kg PO, Table 4. Here is the method:
The purpose of this study is to determine the pharmacokinetics of the tested compounds in plasma, following oral gavage administration (PO) to male CD-1 mice.
Animal Husbandry: Animals were group housed during acclimation and the study. The animal room environment were controlled (target conditions: temperature 18 to 26° C., relative humidity 30 to 70%, 12 hours artificial light and 12 hours dark). Temperature and relative humidity were monitored daily. Animals were fasted at least 12 hours prior to the administration. All animals had access to Certified Rodent Diet ad libitum 4 hours post dosing.
Dose Formulation: prepared 85-100 uL of a stock solution of representative compounds of the disclosure in DMSO at 50 mM; 1.5% v/v of Tween 80 were added and mixed gently; 95.5% v/v saline was added gently to the organic phase. The solution was mixed slowly by reverse pipetting to get a clear solution.
Dose Administration: the dose formulations were administered via oral gavage per facility SOPs. The dose volume were determined by the animals' body weight collected on the morning of dosing day
Sample Collection: blood collection (about 0.05 mL per time point) was performed from saphenous vein of each animal into polypropylene tubes at each timepoints (0, 0.25, 0.5, 1, 2, 4, 8, 12, and 24 hr). All blood samples were transferred into pre-chilled tubes containing 2 μL of K2-EDTA (0.5M) and placed on wet ice until centrifugation. Each collected blood sample was in the wet-ice before centrifugation. Each collected blood was under centrifugation for 15 minutes at 4° C. and 3000 g for plasma collection. Plasma samples were stored in polypropylene tubes, quickly frozen over dry ice and kept at −70±10° C. until LC/MS/MS analysis.
Bioanalytical analysis: A LC-MS/MS method for the quantitative determination of tested compound in biological matrix were developed under non-GLP compliance. A calibration curve with at least 7 non-zero calibration standards were applied for the method including LLOQ.
Plasma concentration versus time data were analyzed by non-compartmental approaches using the Phoenix WinNonlin 6.3 software program. Cl, Vdss, C0, Cmax, Tmax, T^1/2, AUC(0-t), AUC(0-inf), MRT(0-t), MRT(0-inf), % F (oral availability) and graphs of plasma concentration versus time profile were reported.

Another data set has as its system LNCaP tumors. In words: LNCaP xenografts model in castrated male NCG mice. The format is in vivo. The note with it: Table 4; extrapolated Cmin in efficacy. Here is the method:
Tumor growth was measured in male NCG mice bearing LNCaP tumors. Castration was performed when tumors reached ˜100 mm^3 and dosing (60 mg/kg PO qd) started 1 week after castration. […] Individual tumor volume change from baseline measured at the end of the experiment.

Each structure is given as a SMILES string.

As to `CNC(=O)c1ccc(N2C(=S)N(c3ccc(C#N)c(C(F)(F)F)c3)C(=O)C2(C)C)cc1F` [Enzalutamide, enzalutamide, reference compound], the half-life at 1 μM in data set [1] was over 120 min; in data set [2], over 120 min; in data set [3], over 120 min; in data set [4], over 120 min; in data set [5], over 120 min; in data set [6] it was over 360 min. Further, the “Cmin at 5 mg/kg PO” value was 3.80 µM in data set [7] and 22.8 µM with LNCaP tumors.
